Bounds are passed on as bounds.

The target of one assay is T1, COX-2 (Homo sapiens, UniProt P35354).
T1 construct: purchased Abcam limited, Cambridge, UK
T1 sequence (P35354 18-604): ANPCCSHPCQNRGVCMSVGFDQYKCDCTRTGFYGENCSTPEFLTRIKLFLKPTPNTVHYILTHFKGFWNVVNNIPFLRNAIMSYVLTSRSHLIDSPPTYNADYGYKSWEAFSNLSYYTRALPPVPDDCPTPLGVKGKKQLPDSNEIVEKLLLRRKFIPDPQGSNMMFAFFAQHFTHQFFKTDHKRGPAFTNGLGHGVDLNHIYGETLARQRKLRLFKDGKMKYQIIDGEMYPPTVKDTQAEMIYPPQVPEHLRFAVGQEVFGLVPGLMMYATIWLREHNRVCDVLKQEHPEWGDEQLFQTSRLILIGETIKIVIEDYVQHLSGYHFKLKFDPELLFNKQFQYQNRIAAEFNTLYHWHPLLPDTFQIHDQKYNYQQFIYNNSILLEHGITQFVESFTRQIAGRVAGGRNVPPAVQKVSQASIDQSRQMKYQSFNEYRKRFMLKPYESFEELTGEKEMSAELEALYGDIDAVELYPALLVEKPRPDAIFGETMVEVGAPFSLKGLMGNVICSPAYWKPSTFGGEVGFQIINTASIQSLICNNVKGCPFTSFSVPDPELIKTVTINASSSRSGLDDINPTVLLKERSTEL
The experiment in a line: COX-2 Inhibitor Screening Kit (Fluorometric). The format is biochemical. To be noted: for inhibition at 10 µM / inhibition at 100 µM: mean ± SE, read-out: Percentage of COX-2 Inhibition. The protocol:
The COX-2 Inhibitor Screening Kit (Fluorometric) (Abcam limited, Cambridge, UK) is a sensitive assay for screening COX-2 inhibitors by fluorometrically detecting Prostaglandin G2, an intermediate formed by COX enzymatic activity The COX-2 inhibitory activity was evaluated following the manufacturer’s instructions. Tested compounds were prepared as 5 mM DMSO stock solutions, diluted 5-fold with assay buffer, and 10 µL was used per well. Controls included celecoxib (inhibitor control), DMSO (solvent control) and enzyme control. A reaction mix containing COX-2 enzyme, probe, cofactor, and assay buffer was added (80 µL), followed by 10 µL arachidonic acid/NaOH to start the reaction. Fluorescence (Ex/Em = 535/587 nm) was monitored kinetically at 25 °C. All measurements were performed in triplicate.

The subject of a further assay is tested fungal strains. The experiment in a line: Microdilution MIC, summary over tested fungal strains. To be noted: tested concentrations 5 to 0.039 mg/mL. It is filed as cell-based. The protocol: The antimicrobial activity was evaluated against 15 microorganisms. This included 11 bacterial strains: four standard strains (Staphylococcus aureus ATCC 25923, Bacillus subtilis ATCC 6633, Bacillus pumilus NCTC 8241, and Escherichia coli ATCC 25922) and six clinical or environmental isolates (Staphylococcus aureus, Escherichia coli, Bacillus cereus, Proteus mirabilis, Salmonella enterica, and Klebsiella pneumoniae). One probiotic strain, Bifidobacterium animalis subsp. lactis was tested. In addition, four fungal strains, Candida albicans ATCC 10231, Trichoderma viride ATCC 13233, Aspergillus flavus ATCC 9170, and Fusarium solani ATCC 11712 were tested. The bacterial strains were kept in glycerol stock at −80 °C and the fungal strains in paraffin oil stock at 4 °C. […]
Antimicrobial activity was evaluated by determining the minimum inhibitory concentration (MIC) and minimum microbicidal concentration (MMC) using the microdilution plate method with resazurin as an indicator [28]. […]
Each test also included growth control and sterility control. […] For molds, MIC values of the tested compound were determined as the lowest concentration that inhibited visible mycelia growth. MMC was determined by inoculation of the nutrient agar medium by plating […] of samples from wells, where no indicator color change was recorded. […]
On the technique in general: In broth dilution the organism is exposed to a series of concentrations in liquid medium.

For the compound `S=C1NCC(c2ccccc2)O1` (racemic) [Compound 4, rac-5-Phenyl-1,3-oxazolidine-2-thione], at COX-2, the IC50 was above 100 µM, the inhibition at 10 µM amounted to 4.5 ± 1.6% and the inhibition at 100 µM is 14.2 ± 1%.
`S=C1NC[C@H](c2ccccc2)O1` [Compound 5, (S)-5-phenyl-1,3-oxazolidine-2-thione]: at COX-2, the IC50 was above 100 µM, the inhibition at 10 µM was 8.11 ± 1% and the inhibition at 100 µM came to 21.2 ± 1.3%.
For the compound `O=C1NCC(c2ccccc2)S1` (stereo not shown) [Compound 6, 5-phenyl-1,3-thiazolidin-2-one], in the assay on tested fungal strains, the “antifungal activity (in words)” value is recorded as “all fungal strains were resistant”.

The term IC50 denotes the concentration that inhibits the measured activity by half. Broadly, the inhibition is the drop in the measured response relative to a control, in per cent.

The record behind these values is publication PMC12693701, “Glucosinolate-Derived Metabolites from Barbarea vulgaris (Brassicaceae): Evaluation of Antimicrobial, Antioxidant, and Anti-Inflammatory Potentials” (Molecules, 2025).
